Assay results as given in ChEMBL document CHEMBL1135173, “Discovery of substituted 3,4-diphenyl-thiazoles as a novel class of monoamine transporter inhibitors through 3-D pharmacophore search using a new pharmacophore model derived from mazindol” (Bioorg Med Chem Lett, 2002).
pKi: −log10 of the molar value.

Assays:
[1] = target: Sodium-dependent dopamine transporter (Rattus norvegicus, UniProt P23977); assay: Tested for the ability to displace [3H]WIN-35 428 binding to dopamine transporter (DAT) in rat striatal tissue; format: tissue-based, Striatum
Chain of Sodium-dependent dopamine transporter (P23977 whole entry): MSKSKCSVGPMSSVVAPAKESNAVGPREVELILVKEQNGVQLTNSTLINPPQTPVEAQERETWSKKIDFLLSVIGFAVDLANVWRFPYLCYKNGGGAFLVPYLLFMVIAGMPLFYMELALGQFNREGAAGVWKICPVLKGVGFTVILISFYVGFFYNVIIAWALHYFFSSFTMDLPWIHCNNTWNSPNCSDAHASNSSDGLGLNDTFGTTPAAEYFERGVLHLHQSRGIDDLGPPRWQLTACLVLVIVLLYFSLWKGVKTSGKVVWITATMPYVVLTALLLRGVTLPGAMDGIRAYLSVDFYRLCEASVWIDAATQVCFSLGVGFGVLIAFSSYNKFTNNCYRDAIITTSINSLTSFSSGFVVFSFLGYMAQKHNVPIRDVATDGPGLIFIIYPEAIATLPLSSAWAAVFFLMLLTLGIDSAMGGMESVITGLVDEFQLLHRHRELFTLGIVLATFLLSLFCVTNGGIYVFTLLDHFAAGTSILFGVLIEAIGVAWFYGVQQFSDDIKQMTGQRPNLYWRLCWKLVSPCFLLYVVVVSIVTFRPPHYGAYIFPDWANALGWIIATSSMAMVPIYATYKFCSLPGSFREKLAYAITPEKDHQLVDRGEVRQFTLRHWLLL

[2] = target: Norepinephrine transporter (Rattus norvegicus, UniProt Q9WTR4); assay: Compound was tested for the inhibition of norepinephrine [3H]NE reuptake into rat cortical membranes; format: cell membranes, Membrane
Chain of Norepinephrine transporter (Q9WTR4 whole entry): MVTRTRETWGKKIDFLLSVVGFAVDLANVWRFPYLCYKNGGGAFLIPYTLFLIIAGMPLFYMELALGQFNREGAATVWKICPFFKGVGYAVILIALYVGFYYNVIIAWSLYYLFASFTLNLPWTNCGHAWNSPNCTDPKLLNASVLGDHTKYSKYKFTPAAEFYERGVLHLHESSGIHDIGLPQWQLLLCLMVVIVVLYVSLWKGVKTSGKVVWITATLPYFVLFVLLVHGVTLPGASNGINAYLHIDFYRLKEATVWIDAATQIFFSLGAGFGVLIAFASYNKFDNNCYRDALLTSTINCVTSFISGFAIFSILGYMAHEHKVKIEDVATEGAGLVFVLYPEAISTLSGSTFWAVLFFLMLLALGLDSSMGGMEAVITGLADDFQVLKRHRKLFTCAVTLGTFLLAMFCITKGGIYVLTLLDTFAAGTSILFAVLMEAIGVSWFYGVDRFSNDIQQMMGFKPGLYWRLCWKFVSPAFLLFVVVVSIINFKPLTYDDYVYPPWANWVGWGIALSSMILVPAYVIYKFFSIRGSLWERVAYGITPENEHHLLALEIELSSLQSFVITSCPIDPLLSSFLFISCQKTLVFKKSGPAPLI

[3] = target: Norepinephrine transporter (Rattus norvegicus) (UniProt Q9WTR4); assay: Selectivity ratio towards Norepinephrine and to that of dopamine transporter
Chain of Norepinephrine transporter (Rattus norvegicus) (Q9WTR4 as listed by the source): as the sequence (Q9WTR4 whole entry) above

[4] = target: Norepinephrine transporter (Rattus norvegicus) (UniProt Q9WTR4); assay: Selectivity ratio towards Norepinephrine and to that of serotonin transporter
[5] = target: Monoamine transporters; serotonin & dopamine (Rattus norvegicus) (UniProt P31652+P23977); assay: Selectivity ratio towards Serotonin and to that of dopamine transporter; format: protein assay
Chain of Monoamine transporters; serotonin & dopamine (Rattus norvegicus) (P23977 whole entry, looked up): as the sequence (P23977 whole entry) above
Chain of Monoamine transporters; serotonin & dopamine (Rattus norvegicus) (P31652 whole entry, looked up): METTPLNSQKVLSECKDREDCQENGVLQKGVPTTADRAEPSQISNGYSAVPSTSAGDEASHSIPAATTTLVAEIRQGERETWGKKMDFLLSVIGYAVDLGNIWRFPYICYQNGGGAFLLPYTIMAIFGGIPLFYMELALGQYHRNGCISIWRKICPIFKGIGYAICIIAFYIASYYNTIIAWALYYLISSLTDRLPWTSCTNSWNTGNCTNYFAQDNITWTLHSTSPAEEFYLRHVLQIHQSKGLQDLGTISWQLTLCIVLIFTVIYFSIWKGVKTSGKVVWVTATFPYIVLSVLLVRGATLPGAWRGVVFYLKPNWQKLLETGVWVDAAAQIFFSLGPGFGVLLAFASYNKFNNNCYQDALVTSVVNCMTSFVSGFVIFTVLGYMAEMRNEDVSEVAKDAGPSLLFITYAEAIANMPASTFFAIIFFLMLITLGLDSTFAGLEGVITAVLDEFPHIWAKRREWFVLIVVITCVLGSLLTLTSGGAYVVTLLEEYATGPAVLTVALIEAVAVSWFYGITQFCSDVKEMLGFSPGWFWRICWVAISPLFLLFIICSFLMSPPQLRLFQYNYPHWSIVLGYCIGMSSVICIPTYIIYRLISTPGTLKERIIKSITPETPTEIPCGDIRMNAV

[6] = target: Sodium-dependent serotonin transporter (Rattus norvegicus, UniProt P31652); assay: Compound was tested for the inhibition of serotonin [3H]SER reuptake into rat forebrain membranes; format: cell membranes, Membrane
Chain of Sodium-dependent serotonin transporter (P31652 whole entry): as the sequence (P31652 whole entry, looked up) above

Rattus norvegicus [7] = organism: Rattus norvegicus; assay: Compound was tested for the inhibition of [3H]-DA reuptake into rat striatal tissue; format: functional, Striatum
Rattus norvegicus [8] = organism: Rattus norvegicus; assay: Compound was tested for the inhibition of [3H]DA reuptake into dopamine transporter in rat striatal tissue; format: functional, Striatum

SMILES | pKi [1] | pKi [2] | Selectivity ratio [3] | Selectivity ratio [4] | Selectivity ratio [5] | pKi [6] | pKi (Rattus norvegicus [7]) | pKi (Rattus norvegicus [8])
N=c1scc(-c2ccc(Cl)cc2)n1-c1ccc(Cl)cc1Cl | 6.27 | 6.85 | 0.55 | 0.17 | 3.32 | 6.07 | 6.60 | –
N=c1scc(-c2ccc(Cl)cc2)n1-c1ccccc1N1CCOCC1 | 4.38 | 4.66 | 0.29 | 52.1 | 0.006 | 6.37 | – | 4.12
CC1C(=O)N=CC(c2ccccc2)=C1c1ccccc1 (stereo not drawn) | < 6.00 | – | – | – | – | – | – | –
N=c1scc(-c2ccc(Cl)cc2)n1-c1ccccc1F | 6.72 | 7.44 | 0.17 | 0.026 | 6.69 | 5.85 | 6.68 | –
Cc1ccc(-c2csc(=N)n2-c2ccc(Cl)cc2)cc1 | 6.91 | 6.10 | 4.68 | 0.31 | 15.3 | 5.58 | 6.77 | –
c1ccc(-c2nccnc2-c2ccccc2)cc1 | < 6.00 | – | – | – | – | – | – | –
N=c1scc(-c2ccc(Cl)cc2)n1-c1cccc(C(F)(F)F)c1 | 7.07 | 7.59 | 0.26 | 0.065 | 3.94 | 6.40 | 7.00 | –

These reach a higher pKi [1]. Values come first.

pKi [1] | pKi [2] | Selectivity ratio [3] | Selectivity ratio [4] | Selectivity ratio [5] | pKi [6] | pKi (Rattus norvegicus [7]) | pKi (Rattus norvegicus [8]) | SMILES
7.15 | 6.85 | 1.17 | 2.09 | 0.56 | 7.17 | 6.92 | – | N=c1scc(-c2ccc(Br)cc2)n1-c1cccc(C(F)(F)F)c1
7.62 | 7.00 | 4.1 | 0.44 | 9.4 | 6.65 | 7.64 | – | Cc1cc(-c2csc(=N)n2-c2ccc(Cl)cc2)ccc1Cl
7.32 | 7.07 | 0.84 | 0.2 | 4.25 | 6.36 | 6.99 | – | Cc1cc(-n2c(-c3c(F)cccc3F)csc2=N)ccc1Cl
